From patent US7666390B2, “DTPA derivatives and metal complexes thereof, and radiation source and contrast agent including the metal complexes” (Korea Atomic Energy Research Institute, priority 2005, dated 2010)

Experiments:
[1] = Urinary excretion of the radioactive metal (^99mTc) complex in animals, gamma camera imaging and renal time activity curves; format: in vivo, rabbits (New Zealand White); settings: male rabbits; for time to achieve maximum activity (Tmax) / time to eliminate half of the maximum activity (T1/2): ear vein injection 1.0±0.1 mCi, from ROI time activity curve
Method: (§1) Male rabbits (New Zealand White) were anesthetized by the intramuscular injection of 25 mg/kg of Ketamine (Yuhan Corporation, Korea) and 6 mg/kg of Rompun (Bayer Korea), and then received through the ear vein 1.0±0.1 mCi of the ^99mTc-DTPA derivative complex, ^99mTc-DTPA-mono(3-amido-2,4,6-triiodobenzoic acid). The behavior of the drug was monitored for 30 min by scanning the whole body of rabbits using a gamma camera (SIMENSE, Germany). The gamma camera was equipped with a parallel hole collimator, and was set at an energy level of 140 keV to obtain images.
In addition, regions of interest (ROIs) were created around the right and left kidneys to produce time activity curves. From the time activity curves, time to achieve maximum activity (Tmax) and time to eliminate half of the maximum activity (T1/2) for each kidney were calculated using a computer system (SINCTRON IV, Germany), and the results are given in FIG. 4.

[2] = Urinary excretion of the radioactive metal (^166Ho) complex in animals, gamma camera imaging and renal time activity curves; format: in vivo, rabbits (New Zealand White); settings: male rabbits; for half time of the maximum activity (T1/2) / time to maximum activity (Tmax): ear vein injection 3.0±0.2 mCi, from ROI time activity curve
Method: as §1, with “by” for “by the”, “3.0±0.2” for “1.0±0.1”, “^166Ho-DTPA-bis(5-amido-2,4,6-triiodoisophthalic” for “the ^99mTc-DTPA derivative complex, ^99mTc-DTPA-mono(3-amido-2,4,6-triiodobenzoic”, “81 keV. At this energy level, images were obtained using a medium-energy collimator with a window width of 20%.” for “140 keV to obtain images.”
In addition, regions of interest (ROIs) were created around the right and left kidneys to produce time activity curves. From the time activity curves, time to maximum activity (Tmax) and half time of the maximum activity (T1/2) for each kidney were calculated using a computer system (SINCTRON IV, Germany), and the results are given in FIG. 6.

time to achieve maximum activity (Tmax) ([1]; left kidney) [min] | time to eliminate half of the maximum activity (T1/2) ([1]; left kidney) [min] | time from injection by which mostly excreted via the kidneys and bladder ([1]; ear vein injection, whole body gamma camera scan for 30 min, 140 keV) [min] | time to achieve maximum activity (Tmax) ([1]; right kidney) [min] | time to eliminate half of the maximum activity (T1/2) ([1]; right kidney) [min] | half time of the maximum activity (T1/2) ([2]; left kidney) [min] | time to maximum activity (Tmax) ([2]; left kidney) [min] | time from injection by which mostly excreted via the kidneys and bladder ([2]; ear vein injection, whole body gamma camera scan for 30 min, 81 keV) [min] | half time of the maximum activity (T1/2) ([2]; right kidney) [min] | time to maximum activity (Tmax) ([2]; right kidney) [min] | Substance | radioactivity in the kidneys ([1]; 30 min after injection) | radioactivity in the kidneys ([2]; 30 min after injection)
1 | 5 | ≤ 30 | 1 | 5.5 |  |  |  |  |  | ^99mTc-DTPA-mono(3-amido-2,4,6-triiodobenzoic acid) | decrease to a level near the non-specific background signal | 
 |  |  |  |  | 6.5 | 1.5 | ≤ 30 | 7.5 | 1.75 | ^166Ho-DTPA-bis(5-amido-2,4,6-triiodoisophthalic acid) |  | decrease to a level near the non-specific background signal
